Reference: US20080161607A1 (Teva Pharmaceuticals USA, Inc., priority 2002, published 2008)

Columns and labels:
[1] = Storage stability of bulk sertraline hydrochloride Form II; polymorph content by XRPD; settings: for Polymorph Content of bulk sertraline hydrochloride, content of Form I (in parentheses) / Polymorph Content of bulk sertraline hydrochloride, Polymorphic Form detected (I or II): 40° C., 75% RH; for Polymorph Content of bulk sertraline hydrochloride, content of Form I (in parentheses): Form I relative to all sertraline hydrochloride
Description: X-Ray powder diffraction data was obtained by using a SCINTAG powder X-Ray diffractometer model X′TRA equipped with a solid state detector. Copper radiation of 1.5418 Å was used. The diffractometer was equipped with a round aluminum sample holder with round zero background quartz plate having a cavity of 25(diameter)*0.5(depth) mm.

[2] = granulation in isopropyl alcohol, ethyl acetate, hexane at 40 E to 60 E C; disclosed in U.S. Pat. No. 5,248,699; cited from earlier work

CN[C@H]1CC[C@@H](c2ccc(Cl)c(Cl)c2)c2ccccc21.Cl [Example 1, (1S-cis)-4-(3,4 dichlorophenyl)-1,2,3,4-tetrahydro-N-methyl-1-naphthalenamine hydrochloride]
Polymorph Content of bulk sertraline hydrochloride, content of Form I (in parentheses) ([1]; 1 month): < 1% | Polymorph Content of bulk sertraline hydrochloride, Polymorphic Form detected (I or II) ([1]; 1 month, hydrochloride): II > I | Polymorph Content of bulk sertraline hydrochloride, content of Form I (in parentheses) ([1]; 2 months): 2% | Polymorph Content of bulk sertraline hydrochloride, Polymorphic Form detected (I or II) ([1]; 2 months, hydrochloride): II > I | Polymorph Content of bulk sertraline hydrochloride, Polymorphic Form detected (I or II) ([1]; 3 months): II > I | Polymorph Content of bulk sertraline hydrochloride, content of Form I (in parentheses) ([1]; 3 months): 2% | Polymorph Content of bulk sertraline hydrochloride, Polymorphic Form detected (I or II) ([1]; 4 months): II > I | Polymorph Content of bulk sertraline hydrochloride, content of Form I (in parentheses) ([1]; 4 months): 4% | Polymorph Content of bulk sertraline hydrochloride, content of Form I (in parentheses) ([1]; t = 0): < 1% | Polymorph Content of bulk sertraline hydrochloride, Polymorphic Form detected (I or II) ([1]; t = 0, hydrochloride): II > I

CN[C@H]1CC[C@@H](c2ccc(Cl)c(Cl)c2)c2ccccc21.Cl [Form II, (1S-cis)-4-(3,4 dichlorophenyl)-1,2,3,4-tetrahydro-N-methyl-1-naphthalenamine hydrochloride]
result of granulation [2]: conversion to Form I

CN[C@H]1CC[C@@H](c2ccc(Cl)c(Cl)c2)c2ccccc21.Cl [sertraline hydrochloride]
stability during storage under stress conditions ([1]; Form II containing at least about 1% w/w Form I): not stable
